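Results reflect a 48-hour exposure of cells in 96-well plates to compound at five concentrations. Here, GI50 denotes the concentration required for 50% inhibition of growth.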 Calls of active or inactive are those of the source. Cut-off read from the data, not from the text of the source: active = GI50 up to about 1.1 µM and inactive = higher.
Experiments:
Assay in all cases: NCI-60 cell line screen, 48 h
HCT-15 = system: HCT-15
A498 = system: A498
Hs-578T = system: Hs-578T
CCRF-CEM = system: CCRF-CEM
ACHN = system: ACHN
LOX IMVI = system: LOX IMVI
NCI-H23 = system: NCI-H23
UO-31 = system: UO-31
HT-29 = system: HT-29
UACC-257 = system: UACC-257
A549 = system: A549
OVCAR-5 = system: OVCAR-5
MDA-N = system: MDA-N
MDA-MB-231 = system: MDA-MB-231
MCF7 = system: MCF7
CAKI-1 = system: CAKI-1
RPMI-8226 = system: RPMI-8226
HCC 2998 = system: HCC 2998
COLO 205 = system: COLO 205
SF-268 = system: SF-268
BT-549 = system: BT-549
OVCAR-8 = system: OVCAR-8
HOP-92 = system: HOP-92
Malme-3M = system: Malme-3M
HL-60 = system: HL-60
NCI-H460 = system: NCI-H460
OVCAR-4 = system: OVCAR-4
U-251 = system: U-251
SK-MEL-5 = system: SK-MEL-5
OVCAR-3 = system: OVCAR-3
NCI-H522 = system: NCI-H522
NCI/ADR-RES = system: NCI/ADR-RES
SR = system: SR
PC-3 = system: PC-3
SW-620 = system: SW-620
786-0 = system: 786-0
RXF 393 = system: RXF 393
IGROV-1 = system: IGROV-1
SN12C = system: SN12C
SK-MEL-28 = system: SK-MEL-28
SF-295 = system: SF-295
MDA-MB-435 = system: MDA-MB-435
NCI-H226 = system: NCI-H226
TK-10 = system: TK-10
SF-539 = system: SF-539
SK-MEL-2 = system: SK-MEL-2
SNB-75 = system: SNB-75
EKVX = system: EKVX
DU-145 = system: DU-145
KM12 = system: KM12
HCT-116 = system: HCT-116
HOP-62 = system: HOP-62
SNB-19 = system: SNB-19
MOLT-4 = system: MOLT-4
K562 = system: K562
SK-OV-3 = system: SK-OV-3
T47D = system: T47D
UACC-62 = system: UACC-62
M14 = system: M14

Measured: GI50

c1ccc(-c2csc3c2-n2cccc2C3N2CCCC2)cc1 (stereo not given)
93.8 µM: HCT-15
inactive: A498 76 µM | Hs-578T 62.1 µM | CCRF-CEM 70.1 µM | ACHN > 100 µM | LOX IMVI 40.7 µM | NCI-H23 20.9 µM | UO-31 > 100 µM | HT-29 28.2 µM | UACC-257 7.36 µM | A549 26.4 µM | OVCAR-5 20.2 µM | MDA-N 34.4 µM | MDA-MB-231 35.6 µM | MCF7 30.5 µM | CAKI-1 72.3 µM | RPMI-8226 20.8 µM | HCC 2998 26.1 µM | COLO 205 > 10 µM | SF-268 13.9 µM | BT-549 3.3 µM | OVCAR-8 26.8 µM | HOP-92 21 µM | Malme-3M 23.9 µM | HL-60 23.5 µM | NCI-H460 44.4 µM | OVCAR-4 34.4 µM | U-251 11.1 µM | SK-MEL-5 4.84 µM | OVCAR-3 6.9 µM | NCI-H522 13.3 µM | NCI/ADR-RES > 100 µM | SR 57.7 µM | PC-3 32.7 µM | SW-620 44.2 µM | 786-0 58.1 µM | RXF 393 > 100 µM | IGROV-1 21.1 µM | SN12C > 100 µM | SK-MEL-28 24.7 µM | SF-295 23.8 µM | MDA-MB-435 33.7 µM | NCI-H226 85.1 µM | TK-10 27 µM | SF-539 36.4 µM | SK-MEL-2 > 100 µM | SNB-75 14.9 µM | EKVX 13.8 µM | DU-145 95.3 µM | KM12 30.7 µM | HCT-116 43.8 µM | HOP-62 26.5 µM | SNB-19 19.6 µM | MOLT-4 42.3 µM | K562 22.6 µM

C/C=C/[C@H]1O[C@@](OC)([C@@H](C)[C@H](O)[C@H](C)[C@H]2OC(=O)/C(OC)=C/C(C)=C/[C@@H](C)[C@@H](O)[C@@H](C)[C@@H](O)[C@H](C)C/C(C)=C/C=C/[C@@H]2OC)CC(OC2CC(O)C(OC(N)=O)C(C)O2)[C@@H]1C (stereo not given in full)
active: T47D < 10 nM | CCRF-CEM < 0.01 µM | ACHN < 0.01 µM | LOX IMVI < 0.01 µM | UO-31 < 0.01 µM | HT-29 < 0.01 µM | UACC-257 < 0.01 µM | A549 < 0.01 µM | MDA-N < 0.01 µM | MDA-MB-231 < 0.01 µM | MCF7 < 0.01 µM | UACC-62 < 10 nM | CAKI-1 < 0.01 µM | RPMI-8226 < 0.01 µM | HCC 2998 < 0.01 µM | COLO 205 < 0.01 µM | SF-268 < 0.01 µM | BT-549 < 0.01 µM | OVCAR-8 < 0.01 µM | HOP-92 0.103 µM | Malme-3M < 0.01 µM | HL-60 < 0.01 µM | NCI-H460 < 0.01 µM | U-251 < 0.01 µM | M14 < 0.01 µM | SK-MEL-5 < 0.01 µM | OVCAR-3 < 0.01 µM | NCI-H522 < 0.01 µM | NCI/ADR-RES 0.0953 µM | SR < 0.01 µM | PC-3 < 0.01 µM | SW-620 < 0.01 µM | 786-0 < 0.01 µM | IGROV-1 < 0.01 µM | SN12C 0.589 µM | SF-295 < 0.01 µM | MDA-MB-435 < 0.01 µM | NCI-H226 < 0.01 µM | SF-539 < 0.01 µM | SK-MEL-2 < 0.01 µM | EKVX < 0.01 µM | KM12 < 0.01 µM | HCT-116 < 0.01 µM | HOP-62 < 0.01 µM | MOLT-4 < 0.01 µM | K562 < 0.01 µM
< 0.01 µM: HCT-15
inactive: A498 8.99 µM | Hs-578T 2.08 µM | SK-OV-3 7.48 µM | NCI-H23 1.99 µM | OVCAR-5 1.82 µM | RXF 393 2.39 µM | TK-10 8.79 µM | SNB-19 2.9 µM

CC1(C)CCSC(/C=C/c2ccccc2)=N1
9.77 µM: HCT-15
inactive: A498 20.1 µM | Hs-578T 43.4 µM | SK-OV-3 43.9 µM | CCRF-CEM 21.5 µM | ACHN 17.5 µM | LOX IMVI 13.7 µM | NCI-H23 17.8 µM | HT-29 18.4 µM | UACC-257 13 µM | A549 25.2 µM | OVCAR-5 20.2 µM | MDA-N 12.4 µM | MDA-MB-231 15.7 µM | MCF7 12.3 µM | CAKI-1 14.8 µM | RPMI-8226 17.7 µM | SF-268 30.8 µM | BT-549 7.14 µM | OVCAR-8 15.5 µM | HOP-92 13.4 µM | Malme-3M 11.8 µM | HL-60 33.1 µM | NCI-H460 12.1 µM | OVCAR-4 16 µM | U-251 17.9 µM | M14 13.2 µM | SK-MEL-5 15.2 µM | OVCAR-3 15.2 µM | NCI-H522 17 µM | NCI/ADR-RES 14.7 µM | PC-3 16.6 µM | SW-620 19.1 µM | 786-0 12.9 µM | RXF 393 21.6 µM | IGROV-1 20.6 µM | SK-MEL-28 19.3 µM | SF-295 19.9 µM | MDA-MB-435 17.9 µM | TK-10 18.2 µM | SF-539 19.8 µM | SK-MEL-2 14.6 µM | EKVX 31.6 µM | DU-145 35.8 µM | KM12 12 µM | HCT-116 13.6 µM | HOP-62 16.4 µM | SNB-19 20.1 µM | MOLT-4 19 µM | K562 > 100 µM
